Data on 27 compounds can be found in ChEMBL document CHEMBL1153211, “Evaluation of secondary amide replacements in a series of CCR5 antagonists as a means to increase intrinsic membrane permeability. Part 1: Optimization of gem-disubstituted azacycles” (Bioorg Med Chem Lett, 2010).

The test system of data set [1] is Human immunodeficiency virus 1. Briefly: Antiviral activity against HIV1 infected in human JC53-BL cells after 3 days by luciferase reporter gene assay. The data set is classed as functional, organism-based. The following applies: Human immunodeficiency virus 1, JC53BL, 72 h. (A reporter such as luciferase makes a cellular process visible.)
For data set [2], the target named is C-C chemokine receptor type 5 (Homo sapiens, UniProt P51681). Kind of data set: Antagonist activity at human CCR5. The data set is classed as functional.
C-C chemokine receptor type 5, sequence (P51681 whole entry): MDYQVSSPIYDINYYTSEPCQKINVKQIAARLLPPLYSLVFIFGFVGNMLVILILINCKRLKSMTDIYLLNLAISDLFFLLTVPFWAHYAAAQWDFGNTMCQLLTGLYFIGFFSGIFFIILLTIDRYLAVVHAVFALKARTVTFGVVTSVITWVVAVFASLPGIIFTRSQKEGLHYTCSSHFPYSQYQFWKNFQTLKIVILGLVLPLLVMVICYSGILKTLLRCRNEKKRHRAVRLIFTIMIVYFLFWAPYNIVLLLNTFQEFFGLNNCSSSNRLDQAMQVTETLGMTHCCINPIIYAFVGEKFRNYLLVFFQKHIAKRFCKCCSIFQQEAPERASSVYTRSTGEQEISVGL
The nature of data set [3]: Apparent permeability from apical to basolateral side of human Caco-2 cells after 21 days. (Passage across Caco-2 layers is used to estimate intestinal permeability.)

pIC50: −log10 of the molar value. A value given as a limit tells only on which side of the number the result lay.

What is called pIC50 is the negative decadic logarithm of the IC50, by convention in mol/L. A higher pIC50 goes with a small IC50. As for `Cc1ncnc(C)c1C(=O)N1C[C@H]2CN(CCC3(c4ccccc4)CN(C(=O)C4CCC(F)(F)CC4)C3)C[C@H]2C1`, the pIC50 is 7.68 in data set [1] and 7.55 in data set [2].
In the case of `Cc1nc(C(F)(F)F)nc(C)c1C(=O)N1C[C@H]2CN(CCC3(c4ccccc4)CN(C(=O)C4CCC(F)(F)CC4)C3)C[C@H]2C1`, the pIC50 in data set [1] is 8.40; in data set [2], 7.52.
With `Cc1ccnc(C)c1C(=O)N1C[C@H]2CN(CCC3(c4ccccc4)CN(C(=O)C4CCC(F)(F)CC4)C3)C[C@H]2C1`, the pIC50 is 7.92 in data set [1] and 7.42 in data set [2].
Usually Papp A→B stands for the apparent permeability from the apical to the basolateral side of a cell layer. Take `Cc1cc(C#N)nc(C)c1C(=O)N1C[C@H]2CN(CCC3(c4ccccc4)CN(C(=O)C4CCC(F)(F)CC4)C3)C[C@H]2C1`: the figures for the negative logarithm of the IC50 (pIC50) in data set [1] and in data set [2] were 8.70 and 7.77, respectively. Besides, in data set [3], the apparent permeability from apical to basolateral (Papp A→B) worked out at 0.53 ×10⁻⁶ cm/s.
Taken in the same sequence, the figures for `Cc1cc(C#N)nc(C)c1C(=O)N1C[C@H]2CN(CCC3(c4ccccc4)CN(C(=O)C4CC(F)(F)C4)C3)C[C@H]2C1` were 8.40, 7.62 and 0.44 ×10⁻⁶ cm/s.
Taken in the same sequence, the figures for `Cc1cc(C(F)(F)F)nc(C)c1C(=O)N1C[C@H]2CN(CCC3(c4ccccc4)CN(C(=O)C4CCC(F)(F)CC4)C3)C[C@H]2C1` were 7.21, 7.68 and 1.72 ×10⁻⁶ cm/s.
For the compound `Cc1cc(C(F)(F)F)nc(C)c1C(=O)N1C[C@H]2CN(CCC3(c4ccccc4)CN(C(=O)C4CC(F)(F)C4)C3)C[C@H]2C1`, the negative-log IC50 (pIC50) is 8.40 in data set [1] and 7.66 in data set [2]. Also, the Papp A→B in data set [3] was determined as 1.59 ×10⁻⁶ cm/s.
`Cc1nc(C(F)(F)F)nc(C)c1C(=O)N1C[C@H]2CN(CCC3(c4ccccc4)CN(C(=O)C4CCOC4)C3)C[C@H]2C1` (stereo partly specified): the negative logarithm of the IC50 (pIC50) is 7.23 in data set [1] and 7.42 in data set [2].
`Cc1nc(C(F)(F)F)nc(C)c1C(=O)N1C[C@H]2CN(CCC3(c4ccccc4)CN(C(=O)C4CC(F)(F)C4)C3)C[C@H]2C1`: the pIC50 in data set [1] was 7.64; in data set [2], 7.18.
Taken in the same sequence, the figures for `Cc1ncnc(C)c1C(=O)N1C[C@H]2CN(CCC3(c4ccccc4)CN(C(=O)C4CC(F)(F)C4)C3)C[C@H]2C1` were 7.41 and 7.52.
On to `Cc1ncnc(C)c1C(=O)N1C[C@H]2CN(CCC3(c4ccccc4)CN(S(=O)(=O)C4CCCC4)C3)C[C@H]2C1`, for which the negative-log IC50 (pIC50) in data set [1] was 7.40; in data set [2], 7.57.
Compound `Cc1ncnc(C)c1C(=O)N1C[C@H]2CN(CCC3(c4ccccc4)CCN(C(=O)C(C)(C)C)C3)C[C@H]2C1` (stereo partly specified) gave a pIC50 in data set [2] of 6.62.
As for `Cc1ncnc(C)c1C(=O)N1C[C@H]2CN(CCC3(c4cccc(F)c4)CCN(C(=O)CC(C)(C)C)CC3)C[C@H]2C1`, the pIC50 in data set [1] is 6.35.
`Cc1ncnc(C)c1C(=O)N1C[C@H]2CN(CCC3(c4cccc(F)c4)CCN(C(=O)C(C)(C)CO)CC3)C[C@H]2C1` had a pIC50 in data set [2] of 6.78.
On to `Cc1cc(C#N)nc(C)c1C(=O)N1C[C@H]2CN(CCC3(c4cccc(F)c4)CCN(C(=O)C(C)(C)C)CC3)C[C@H]2C1`, for which the negative logarithm of the IC50 (pIC50) was 7.74 in data set [1] and 7.82 in data set [2]. In addition, the apical-to-basolateral permeability (Papp A→B) in data set [3] came to 2.73 ×10⁻⁶ cm/s.
As to `Cc1cc(C#N)nc(C)c1C(=O)N1C[C@H]2CN(CCC3(c4ccccc4)CCN(C(=O)C4CCCC4)C3)C[C@H]2C1` (stereo partly specified), the pIC50 in data set [1] is 7.62; in data set [2], 7.34. Also, in data set [3], the Papp A→B was 2.55 ×10⁻⁶ cm/s.
In the case of `Cc1ncnc(C)c1C(=O)N1C[C@H]2CN(CCC3(c4cccc(F)c4)CCN(C(=O)C(C)(C)C)CC3)C[C@H]2C1`, the results for the negative-log IC50 (pIC50) in data set [1] and in data set [2] were 7.17 and 7.23, respectively. In addition, in data set [3], the Papp A→B stood at 2.98 ×10⁻⁶ cm/s.
Take `Cc1cc(C#N)nc(C)c1C(=O)N1C[C@H]2CN(CCC3(c4ccccc4)CCN(C(=O)C(C)(C)C)C3)C[C@H]2C1` (stereo partly specified): the pIC50 in data set [2] is 7.16.
`Cc1ncnc(C)c1C(=O)N1C[C@H]2CN(CCC3(c4ccccc4)CN(C(=O)C4CCCC4)C3)C[C@H]2C1`: the negative-log IC50 (pIC50) in data set [1] is 7.22; in data set [2], 7.17.
Taken in the same sequence, the figures for `Cc1ncnc(C)c1C(=O)N1C[C@H]2CN(CCC3(c4cccc(F)c4)CCN(C(=O)C(C)C)CC3)C[C@H]2C1` were less than 6.40 and 6.99.
With `Cc1ncnc(C)c1C(=O)N1C[C@H]2CN(CCC3(c4ccccc4)CCN(C(=O)C4CCCC4)C3)C[C@H]2C1` (stereo partly specified), the results for the negative logarithm of the IC50 (pIC50) in data set [1] and in data set [2] were 6.45 and 6.94, respectively.
In the case of `Cc1ccnc(C)c1C(=O)N1C[C@H]2CN(CCC3(c4ccccc4)CN(C(=O)C4CC(F)(F)C4)C3)C[C@H]2C1`, the figures for the negative logarithm of the IC50 (pIC50) in data set [1] and in data set [2] were 7.26 and 7.22, respectively.
Take `Cc1ncnc(C)c1C(=O)N1C[C@H]2CN(CCC3(c4ccccc4)CN(C(=O)CC4CCCC4)C3)C[C@H]2C1`: the pIC50 in data set [1] is 7.28; in data set [2] it was 7.55.
As to `Cc1ncnc(C)c1C(=O)N1C[C@H]2CN(CCC3(c4ccccc4)CN(C(=O)C4CCOC4)C3)C[C@H]2C1` (stereo partly specified), the figures for the pIC50 in data set [1] and in data set [2] were 6.69 and 7.26, respectively.
As to `CC(=O)N1CCC(CCN2C[C@@H]3CN(C(=O)c4c(C)ncnc4C)C[C@@H]3C2)(c2cccc(F)c2)CC1`, in data set [2], the negative logarithm of the IC50 (pIC50) was less than 6.30.
Take `Cc1ncnc(C)c1C(=O)N1C[C@H]2CN(CCC3(c4ccccc4)CN(C(=O)C(C)(C)CO)C3)C[C@H]2C1`: the pIC50 in data set [1] was 6.89; in data set [2], 7.25.
Turning to `Cc1ncnc(C)c1C(=O)N1C[C@H]2CN(CCC3(c4ccccc4)CN(C(=O)C(C)(C)C)C3)C[C@H]2C1`, the results for the pIC50 in data set [1] and in data set [2] were 7.11 and 7.57, respectively.
